Measured values taken from patent publication US5747235A, “Silver halide light sensitive emulsion layer having enhanced photographic sensitivity” (Eastman Kodak Company, priority 1996, dated 1998).

Key:
[1] = oxidation potential E1 by cyclic voltammetry; assay type: physicochemical; conditions: Table A; 80%/20% acetonitrile/water, 0.1M lithium perchlorate, 25° C.
Procedure: Oxidation potentials are well known and can be found, for example, in "Encyclopedia of Electrochemistry of the Elements", Organic Section, Volumes XI-XV, A. Bard and H. Lund (Editors) Marcel Dekker Inc., NY. (1984). E1 can be measured by the technique of cyclic voltammetry. In this technique, the electron donating compound is dissolved in a solution of 80%/20% by volume acetonitrile to water containing 0.1M lithium perchlorate. Oxygen is removed from the solution by passing nitrogen gas through the solution for 10 minutes prior to measurement. A glassy carbon disk is used for the working electrode, a platinum wire is used for the counter electrode, and a saturated calomel electrode (SCE) is used for the reference electrode. Measurement is conducted at 25° C. using a potential sweep rate of 0.1 V/sec. The oxidation potential vs. SCE is taken as the peak potential of the cyclic voltammetric wave.

[2] = fragmentation rate constant kfr by laser flash photolysis; assay type: physicochemical; conditions: Table B; CH3CN/H2O (4:1)
Description: The kinetics of the bond cleavage or fragmentation reaction can be measured by conventional laser flash photolysis. […] The specific experimental apparatus we used to measure fragmentation rate constants and radical oxidation potentials is described in detail below.
(b) Fragmentation Rate Constant Determination
These absorptions were used to determine the kinetics of the fragmentation reactions of the radical cations of the X-Y. Excitation of 9,10-dicyanoanthracene (DCA) in the presence of biphenyl and the X-Y donor, as described above, results in the formation of the DCA^.cndot.- and the X-Y^.cndot.+. By using a concentration of X-Y of ca. 10^-2 M, the X-Y^.cndot.+ can be formed within ca. 20 ns of the laser pulse. […] The monitoring wavelengths used were somewhat different for the different donors, but were mostly around 470-530 nm. […] Alternatively, when the decay rate of the X-Y^.cndot.+ was less than 10^6 s^-1, the solutions were purged with oxygen.
The experiments measuring the fragmentation rate constants were performed in acetonitrile with the addition of 20% water, so that all of the salts could be easily solubilized. Most experiments were performed at room temperature. […] When this happened, the fragmentation rate constants were measured as a function of temperature, and the rate constant at room temperature determined by extrapolation.

[3] = oxidation potential E2 of radical X by laser flash photolysis; assay type: physicochemical; conditions: Table C; by parent XY compound; < = more negative than
Description: In this technique, the compound X-Y is oxidized by an electron transfer reaction initiated by a short laser pulse. The oxidized form of X-Y then undergoes the bond cleavage reaction to give the radical X^.cndot.. X^.cndot. is then allowed to interact with various electron acceptor compounds of known reduction potential. […] The experimental details are set forth more fully below. The oxidation potentials (E2) for radicals X^.cndot. for typical compounds useful in accordance with our invention are given in Table C. Where only limits on potentials could be determined, the following notation is used: <-0.90 V should be read as "more negative than -0.90 V" and >-0.40 V should be read as "less negative than -0.40 V".
(a) Oxidation Potential of Radical X.cndot.
The laser flash photolysis measurements were performed using a nanosecond pulsed excimer (Questek model 2620, 308 nm, ca. 20 ns, ca. 100 mJ) pumped dye laser (Lambda Physik model FL 3002). The laser dye was DPS (commercially available from Exciton Co.) in p-dioxane (410 nm, ca. 20 ns, ca. 10 mJ). The analyzing light source was a pulsed 150W xenon arc lamp (Osram XBO 150/W). The arc lamp power supply was a PRA model 302 and the pulser was a PRA model M-306. The pulser increased the light output by ca. 100 fold, for a time period of ca. 2-3 ms. The analyzing light was focussed through a small aperture (ca. 1.5 mm) in a cell holder designed to hold 1 cm^2 cuvettes. The laser and analyzing beams irradiated the cell from opposite directions and crossed at a narrow angle (ca. 15°). After leaving the cell, the analyzing light was collimated and focussed onto the slit (1 mm, 4 nm bandpass) of an ISA H-20 monochromator. The light was detected using 5 dynodes of a Hamamatsu model R446 photomultiplier. The output of the photomultiplier tube was terminated into 50 ohm, and captured using a Tektronix DSA-602 digital oscilloscope. The entire experiment is controlled from a personal computer.
The experiments were performed either in acetonitrile, or a mixture of 80% acetonitrile and 20% water. The first singlet excited state of a cyanoanthracene (A), which acted as the electron acceptor, was produced using the nanosecond laser pulse at 410 nm. […] Secondary electron transfer then occurred between B^.cndot.+ and the lower oxidation potential electron donor X-Y, to generate X-Y^.cndot.+ in high yield. For the investigations of the oxidation potentials of the radicals X^.cndot., typically the cyanoanthrancene concentration was ca. 2×10^-5 M to 10^-4 M the biphenyl concentration was ca. 0.1M. The concentration of the X-Y donor was ca. 10^-3 M. The rates of the electron transfer reactions are determined by the concentrations of the substrates. The concentrations used ensured that the A^.cndot.- and the X-Y^.cndot.+ were generated within 100 ns of the laser pulse. The radical ions could be observed directly by means of their visible absorption spectra. The kinetics of the photogenerated radical ions were monitored by observation of the changes in optical density at the appropriate wavelengths.
The reduction potential (Ered) of 9,10-dicyanoanthracene (DCA) is -0.91 V. In a typical experiment, DCA is excited and the initial photo-induced electron transfer from the biphenyl (B) to the DCA forms a DCA^.cndot.-, which is observed at its characteristic absorption maximum (λobs =705 nm), within ca. 20 ns of the laser pulse. Rapid secondary electron transfer occurs from X-Y to B^.cndot.+ to generate X-Y^.cndot.+, which fragments to give X^.cndot.. A growth in absorption is then observed at 705 nm with a time constant of ca. 1 microsecond, due to reduction of a second DCA by the X^.cndot.. The absorption signal with the microsecond growth time is equal to the size of the absorption signal formed within 20 ns.
If the oxidation potential of X^.cndot. is not sufficiently negative to reduce DCA, an estimate of its oxidation potential was obtained by using other cyanoanthracenes as acceptors. […]

[4] = Example 7: photographic speed and fog with/without HB3, 365 nm exposure, emulsion T-2; conditions: emulsions containing red or blue sensitizing dye and electron donor
Procedure: (§1) For photographic evaluation, each of the coating strips was exposed for 0.1 sec to a 365 nm emission line of a Hg lamp filtered through a Kodak Wratten filter number 18A and a step wedge ranging in density from 0 to 4 density units in 0.2 density steps. The exposed film strips were developed for 6 min in Kodak Rapid X-ray Developer (KRX). S365, relative sensitivity at 365 nm, was evaluated at a density of 0.2 units above fog.
An AgBrI tabular silver halide emulsion (Emulsion T-2) was prepared containing 4.05% total I distributed such that the central portion of the emulsion grains contained 1.5% I and the perimeter area contained substantially higher I, as described by Chang et. al., U.S. Pat. No. 5,314,793. […] This emulsion was precipitated using deionized gelatin. The emulsion was sulfur sensitized by adding 8.5×10^-6 mole 1,3-dicarboxymethyl-1,3-dimethyl-2-thiourea /mole Ag at 40° C.; the temperature was then raised to 60° C. at a rate of 5° C./3 min and the emulsions held for 20 min before cooling to 40° C. The chemically sensitized emulsion was then used to prepare coatings containing the fragmentable two-electron donor compounds. […] Where present, the blue sensitizing dye D-I or the red sensitizing dye D-II were added from methanol solution to the emulsion at 40° C. after the chemical sensitization and disulfocatechol addition. The fragmentable two-electron donor compounds were added to the emulsion at 40° C. and the coatings were prepared and tested as described in Example 1, except that the additional gelatin used to prepare the coatings described in Table III was deionized gelatin.
Where present the blue sensitizing dye D-I or the red sensitizing dye D-II were added from methanol solution to the emulsion at 40° C. after the chemical sensitization and disulfocatechol addition. The fragmentable two-electron donating compounds were then added to the emulsion and coatings prepared as described in Example 1, except that the additional gelatin used to prepare the coatings described in Table VII was deionized gelatin. The coatings were tested for their response to a 365 nm exposure as described in Example 1.

[5] = Example 9: photographic speed and fog, 365 nm exposure, red dyed emulsion T-2; conditions: for Fog / S365: dye II 0.86 x10^-3; for S365: undyed control=100, dyed control 62
Procedure: as §1
An AgBrI tabular silver halide emulsion (Emulsion T-2) was prepared containing 4.05% total I distributed such that the central portion of the emulsion grains contained 1.5% I and the perimeter area contained substantially higher I, as described by Chang et. al., U.S. Pat. No. 5,314,793. […] This emulsion was precipitated using deionized gelatin. The emulsion was sulfur sensitized by adding 8.5×10^-6 mole 1,3-dicarboxymethyl-1,3-dimethyl-2-thiourea /mole Ag at 40° C.; the temperature was then raised to 60° C. at a rate of 5° C./3 min and the emulsions held for 20 min before cooling to 40° C. The chemically sensitized emulsion was then used to prepare coatings containing the fragmentable two-electron donor compounds. All of the experimental coating variations in Table III contained the hydroxybenzene 2,4-disulfocatechol (HB3) at a concentration of 13 mmole/ mole Ag, added to the melt before the addition of any further addenda. Where present, the blue sensitizing dye D-I or the red sensitizing dye D-II were added from methanol solution to the emulsion at 40° C. after the chemical sensitization and disulfocatechol addition. The fragmentable two-electron donor compounds were added to the emulsion at 40° C. and the coatings were prepared and tested as described in Example 1, except that the additional gelatin used to prepare the coatings described in Table III was deionized gelatin.
The sulfur sensitized AgBrI tabular emulsion T-2 as described in Example 3 was used to prepare coatings of the fragmentable two-electron donors S-15, S-14, S-13, and S-11, as described in Table IX. All of the experimental coating variations in Table IX contained the hydroxybenzene, 2,4-disulfocatechcol (HB3) at a concentration of 13 mmole/mole Ag, added to the melt before any further addenda. Where present, the red sensitizing dye D-II was added from methanol solution to the emulsion at 40° C. after the chemical sensitization and disulfocatechol addition. The fragmentable two-electron donor compounds were then added to the emulsion and coatings prepared and tested as described in Example I, except that the additional gelatin used to prepare the coatings described in Table IX was deionized gelatin.

Which “Oxidation Potential of X--Y, E1” value [1] does the source give for `CC(C(=O)O)N(CC(=O)O)c1ccccc1` (stereo not drawn) [Compound 14] here?
The value was 0.50 V vs SCE.

What about the “kfr, Rate Constants for Decarboxylation of Radical Cations” value (“kfr, Rate Constants for Decarboxylation” for short) [2] of the same compound?
The value was greater than 2e+07 s⁻¹.

What about the “Oxidation Potentials of Radicals (X*), E2” value (from here on “Oxidation Potentials”) [3] of the same compound?
The value was less than -0.9 V.

What does the source list for `COc1ccc(N(CC(=O)O)C(C)C(=O)O)cc1` (stereo not drawn) [Compound 15]?
Oxidation Potential of X--Y, E1 [1]: 0.36 V vs SCE; kfr, Rate Constants for Decarboxylation of Radical Cations [2]: 90000 s⁻¹; Oxidation Potentials of Radicals (X*), E2 [3]: < -0.9 V

For `Cc1ccc(N(CC(=O)O)C(C)C(=O)O)cc1` (stereo not drawn) [Compound 20], which “Oxidation Potential of X--Y, E1” value [1] is on record?
The value was 0.46 V vs SCE.

What about the “kfr, Rate Constants for Decarboxylation” value [2] of the same compound?
Its value is 8.1e+06 s⁻¹.

What about the “Oxidation Potentials” value [3] of the same compound?
Its value is less than -0.9 V.

With `Cc1ccc(NC(CC(=O)O)C(=O)O)cc1` (stereo not drawn) [Compound 29] as the compound, how does the “Oxidation Potential of X--Y, E1” value [1] read?
Its value is 0.52 V vs SCE.

What about the “kfr, Rate Constants for Decarboxylation” value [2] of the same compound?
Its value is 5.4e+06 s⁻¹.

What about the “Oxidation Potentials” value [3] of the same compound?
The value was less than -0.9 V.

Which “Oxidation Potential of X--Y, E1” value [1] does the source give for `CCCCN(c1ccc(OC)cc1)C(C)C(=O)O` (stereo not drawn) [Compound 36] here?
Its value is 0.22 V vs SCE.

And the “kfr, Rate Constants for Decarboxylation” value [2]?
Its value is 1.1e+06 s⁻¹.

What about the “Oxidation Potentials” value [3] of the same compound?
Its value is less than -0.9 V.

Which results are given for `Cn1cc(C(C)(C)C(=O)O)c2ccccc21` [Compound 44]?
Oxidation Potential of X--Y, E1 [1]: 0.64 V vs SCE; kfr, Rate Constants for Decarboxylation of Radical Cations [2]: 530000 s⁻¹; Oxidation Potentials of Radicals (X*), E2 [3]: -0.81 V

What does the source list for `Cc1ccc(NC(C)C(=O)O)cc1` (stereo not drawn) [Compound 54]?
Oxidation Potential of X--Y, E1 [1]: 0.44 V vs SCE; kfr, Rate Constants for Decarboxylation of Radical Cations [2]: 1.4e+07 s⁻¹; Oxidation Potentials of Radicals (X*), E2 [3]: < -0.9 V

For `O=C(O)C(O)c1c2ccccc2cc2ccccc12` (stereo not drawn) [Compound 56], which “Oxidation Potential of X--Y, E1” value [1] is on record?
Its value is 0.65 V vs SCE.

What about the “kfr, Rate Constants for Decarboxylation” value [2] of the same compound?
Its value is 120000 s⁻¹.

And the “Oxidation Potentials” value [3]?
The value was less than -0.9 V.

With `CC(C(=O)O)N1c2ccccc2Sc2ccccc21` (stereo not drawn) [Compound 57] as the compound, how does the “Oxidation Potential of X--Y, E1” value [1] read?
Its value is 0.49 V vs SCE.

And the “kfr, Rate Constants for Decarboxylation” value [2]?
Its value is “ca. 1 × 10^5 s^-1”.

What about the “Oxidation Potentials” value [3] of the same compound?
The value was less than -0.9 V.

Which “effect on fog” value [4] does the source give for `O=S(=O)(O)c1cc(O)c(O)c(S(=O)(=O)O)c1` [HB3, 2,4-disulfocatechol, reference compound] here?
Its value is “the level of fog can be lowered”.

Which results are given for “N-(4-Carboxyethylphenyl)-N-(2-thioethyl-ethyl)alanine sodium salt [Compound S-15]”?
Fog ([5]; 0.007 x10^-3 mol/mol Ag): 0.13; S365 ([5]; 0.007 x10^-3 mol/mol Ag): 95; Fog ([5]; 0.022 x10^-3 mol/mol Ag): 0.23; S365 ([5]; 0.022 x10^-3 mol/mol Ag): 105; 365 nm sensitivity of dyed emulsion ([5]; dye D-II): restored to that of the undyed emulsion
